According to PMC9382865, “Infigratinib Reduces Fibroblast Growth Factor 23 (FGF23) and Increases Blood Phosphate in Tumor‐Induced Osteomalacia” (JBMR Plus, 2022):

Tests used:
[1] = system: phosphaturic mesenchymal tumors; assay: 18F-FDG-PET/CT and 68Ga-DOTATATE-PET/CT of tumors before and after infigratinib; type: in vivo, human
Description: In patients with identifiable tumors, recent prior imaging was obtained from the patient record. The imaging studies that best characterized their tumor prior to therapy (18Flouride‐Fluorodeoxyglucose (FDG) DG‐PET/CT and/or 68Gallium (68Ga)‐DOTATATE‐PET/CT) were repeated at the 24‐week visit, if clinically indicated, and the changes were assessed.

[2] = 24-hour pharmacokinetics after the first oral dose of infigratinib 75 mg in patients with TIO; type: in vivo; settings: human, blood
Description: (§1) Serial sampling was performed every 2 hours for 24 hours after the first dose of infigratinib to evaluate the pharmacokinetics and pharmacodynamics of the drug. Subsequently, laboratory tests were performed every 2 weeks. Routine blood and urine chemistries were performed at the NIH Clinical Center Department of Laboratory Medicine during inpatient stays and outpatient visits. Laboratory testing in the intervening weeks were performed either at the NIH or at a local laboratory, depending on the patient's proximity to the NIH. Infigratinib levels were also measured at weeks 4 and 8.
(§2) Biochemical testing included measurement of routine chemistries, 1,25D (radioimmunoassay; Mayo Medical Laboratories, Rochester, MN, USA), cFGF23 (ELISA; Immutopics International, San Clemente, CA, USA; Mayo Medical Laboratories), iFGF23 (ELISA; Immutopics International), C‐telopeptide (CTx) (electrochemiluminescence immunoassay; Mayo Medical Laboratories), and procollagen 1 intact N‐terminal (P1NP) (competitive radioimmunoassay; Mayo Medical Laboratories). Infigratinib levels were measured by Q2 Lab Solutions (Durham, NC, USA).

[3] = design: method as in earlier work; settings: subjects with cholangiocarcinoma; no reactions above grade 2; cited from earlier work
PMT metastases = system: PMT metastases; design: method as in PMID 32905668; settings: one patient with metastatic TIO, while on therapy, cited from earlier work
[4] = Strength assessments and patient-reported quality-of-life outcomes; type: in vivo, human; design: RAND – Emotional well-being: scale not given here; settings: for Grip Strength Evaluation: baseline 15+/-12; for PROMIS – Mobility Item Bank T score (higher = better): baseline 38+/-7; for RAND – Role limitations due to physical health problems: baseline 44+/-13; for RAND SF-36 Physical Functioning (0-100, higher better): baseline 46+/-19; for RAND – Energy/Fatigue: baseline 50+/-29; for RAND – Bodily Pain: baseline 52+/-29; for PROMIS – Fatigue 8A Short Form T score (higher = increased fatigue): baseline 55+/-8; for PROMIS – Pain Interference 8A short form T score (higher = increased pain interference): baseline 56+/-4; for RAND – Social functioning: baseline 59+/-37; for RAND – General health perceptions: baseline 60+/-11; for RAND – Emotional well-being: baseline 67+/-15; for RAND – Role limitations due to emotional health problems: baseline 67 +/-27; for Pinch Test: baseline 6.8 +/-4; for 5x Sit to stand: baseline 15+/-7; for DASH score (0 no disability, 100 severe disability): baseline 16+/-5
Description: (§3) Safety, tolerability, and efficacy were evaluated during in‐person visits every 4 weeks at the NIH Clinical Center and included a physical exam, ophthalmologic exam, patient‐reported outcome measures and strength assessments. The Disabilities of Arm Shoulder and Hand Outcome Measurement (DASH) questionnaire was used to measure self‐reported upper extremity symptoms and disability. The RAND 36‐item Short Form Health Survey (RAND SF‐36) version 1.0 was performed to determine effects of infigratinib on health‐related quality of life over the duration of the study. Patient Reported Outcomes Measurement Information System (PROMIS) item banks for fatigue (PROMIS SF v1.0‐Fatigue 8a), mobility (PROMIS Bank v2.0 – Mobility), and pain interference (PROMIS SF v1.1‐Pain Interference 8a) were also performed. Strength assessments included a Six‐Minute Walk Test, Grip Strength assessment, Pinch Strength assessment, and Five Time Sit to Stand. The Grip Strength assessment was performed on the dominant hand using a JAMAR Hand Dynamometer (Sammons Preston, Inc., Bolingbrook, IL, USA) and three successive trials were averaged to determine the final score. The Pinch Strength assessment was performed using the Exacta Hydraulic Pinch Gauge (North Coast Medical, Inc., Morgan Hill, CA, USA) with three successive trials averaged for the final score.

[5] = Safety and adverse events (CTCAE) in the phase 2 TIO trial; type: in vivo, human
Description: as §3
The primary objective of the study was to induce a persistent metabolic remission, defined by normalization of FGF23 and phosphate after study drug discontinuation. Secondary objectives included evaluating the effects of infigratinib on mineral homeostasis, radiographic appearance of PMTs, quality of life, and muscle strength. Key biochemical end points included changes in iFGF23, cFGF23, phosphate, 1,25D, TRP, and TmP/GFR. Because the study closed prematurely with only four patients enrolled, results were primarily descriptive. Adverse events were summarized by frequency and percentage. Continuous variables were presented as mean ± standard deviation (SD). Linear mixed effects models were fitted to the repeated measures data collected from the 24‐hour serial sampling and the first 8 weeks of therapy when the patients were on the same infigratinib dose (75 mg daily) because, after this point, dose reductions and interruptions occurred. Analysis was performed using SAS (version 9.4; SAS Institute, Inc., Cary, NC, USA). Graphs were produced using GraphPad Prism 8 (GraphPad Software, Inc., La Jolla, CA, USA).

[6] = system: FGF23 (intact and C-terminal), blood phosphate; assay: Biochemical response (iFGF23, cFGF23, phosphate, 1,25D, TRP) in patients with TIO on daily infigratinib; type: in vivo, human
Description: Subjects received oral daily doses of infigratinib for up to 24 weeks. The initial dose of 75 mg daily was based on studies investigating infigratinib use in subjects with cholangiocarcinoma, as well as our clinical experience with two NIH patients with TIO who had previously participated in an infigratinib trial outside of the NIH (ClinicalTrials.gov NCT02160041). After 8 weeks on therapy, dose escalation and de‐escalation of drug was determined by investigators based on tolerability and changes in C‐terminal FGF23 (cFGF23) levels. Planned dose escalation would occur by 25 mg every 8 weeks to a maximum dose of 125 mg/d if cFGF23 levels were not suppressed to <100 relative units (RU)/mL. De‐escalations or interruptions would occur if a subject experienced an adverse event, including hyperphosphatemia. A cFGF23 assay that measures both the active intact FGF23 molecule and inactivated C‐terminal fragments was used for titration purposes rather than an intact FGF23 (iFGF23) assay because the cFGF23 assay was the only commercially available option at the time.
as §1, §2
Tubular reabsorption of phosphate (TRP) was calculated using the following equation: 100 × [1 – (urine phosphate × serum creatinine)/(serum phosphate × urine creatinine)] and maximum renal tubular phosphate reabsorption in mass per unit volume of glomerular filtrate (TmP/GFR) was determined using the following equations: for TRP ≤0.86 (86%): TmP∕GFR = TRP × phosphate; for TRP >0.86 (86%): TmP∕GFR = (0.3 × TRP)/[1 − (0.8 × TRP)] ×phosphate.^( [20] ^)
At the end of week 24, patients still on therapy were admitted again to the NIH Clinical Center to monitor off‐drug effects with daily blood and urine sampling × 7 days. Subjects with persistent biochemical remission after 7 days would be monitored as outpatients off therapy for 12 additional weeks. Subjects with normal phosphate levels on infigratinib but without persistent biochemical response on cessation were considered for an optional extension phase.

[7] = Subject 1, single oral dose 75 mg
[8] = Subject 2, single oral dose 75 mg
[9] = Subject 3, single oral dose 75 mg
[10] = Subject 4, single oral dose 75 mg
[11] = Subject 2, 75 mg then 50 mg daily, up to 24 weeks

SMILES: CCN1CCN(c2ccc(Nc3cc(N(C)C(=O)Nc4c(Cl)c(OC)cc(OC)c4Cl)ncn3)cc2)CC1 [Infigratinib]
- Tumor size change after treatment ([1]; Subjects 1 and 2, after 6 months): without appreciable change in size
- Reduction of SUVmax of the PMTs after treatment ([1]; all studies except Subject 1 68Ga scans): greater than 40%
- AUC [2, 7]: 89.7 ng·h/mL
- Cmax [2, 7]: 28.6 ng/mL
- Tmax [2, 7]: 2 h
- half-life [2, 7]: 164 min
- AUC [2, 8]: 1090 ng·h/mL
- Cmax [2, 8]: 176 ng/mL
- Tmax [2, 8]: 2 h
- half-life [2, 8]: 465 min
- AUC [2, 9]: 133 ng·h/mL
- Cmax [2, 9]: 23.8 ng/mL
- Tmax [2, 9]: 4 h
- half-life [2, 9]: 181 min
- AUC [2, 10]: 764 ng·h/mL
- Cmax [2, 10]: 67.9 ng/mL
- Tmax [2, 10]: 6 h
- half-life [2, 10]: 457 min
- Blurred vision, share of patients [3]: 21%
- Dry eye, including keratitis, share of patients [3]: 44%
- FGF23 change (PMT metastases): significant decreases in FGF23
- Tumor burden (PMT metastases; reversed with cessation): profound reduction in tumor burden
- Grip Strength Evaluation ([4]; 8 Weeks, N=4, mean+/-SD): 18+/-9 kilograms
- PROMIS – Mobility Item Bank T score (higher = better) ([4]; 8 Weeks): 39+/-5
- RAND – Role limitations due to physical health problems ([4]; 8 Weeks): 68+/-31
- RAND SF-36 Physical Functioning (0-100, higher better) ([4]; 8 Weeks): 51+/-17
- RAND – Energy/Fatigue ([4]; 8 Weeks): 53+/-22
- RAND – Bodily Pain ([4]; 8 Weeks): 63+/-37
- PROMIS – Fatigue 8A Short Form T score (higher = increased fatigue) ([4]; 8 Weeks): 53+/-8
- PROMIS – Pain Interference 8A short form T score (higher = increased pain interference) ([4]; 8 Weeks): 52+/-6
- RAND – Social functioning ([4]; 8 Weeks): 78+/-21
- RAND – General health perceptions ([4]; 8 Weeks): 73+/-17
- RAND – Emotional well-being ([4]; 8 Weeks): 72+/-13
- RAND – Role limitations due to emotional health problems ([4]; 8 Weeks): 75+/-32
- Pinch Test ([4]; 8 Weeks, mean+/-SD): 6.8 +/-1 kilograms
- 5x Sit to stand ([4]; 8 Weeks, mean+/-SD): 14 ± 1 s
- DASH score (0 no disability, 100 severe disability) ([4]; 8 Weeks, mean+/-SD): 14+/-5
- 6 Minute Walk Test ([4]; 24 Weeks, N=4, mean+/-SD, baseline 474+/-250, normal range 391-751): 474+/-250 496+/-173 meters
- PROMIS – Mobility Item Bank T score (higher = better) ([4]; 24 Weeks): 39+/-3
- RAND – Role limitations due to physical health problems ([4]; 24 Weeks): 25+/-50
- RAND SF-36 Physical Functioning (0-100, higher better) ([4]; 24 Weeks): 40+/-6
- RAND – Energy/Fatigue ([4]; 24 Weeks): 49+/-33
- RAND – Bodily Pain ([4]; 24 Weeks): 36+/-2.5
- PROMIS – Fatigue 8A Short Form T score (higher = increased fatigue) ([4]; 24 Weeks): 52+/-9
- PROMIS – Pain Interference 8A short form T score (higher = increased pain interference) ([4]; 24 Weeks): 53+/-9
- RAND – Social functioning ([4]; 24 Weeks): 72+/-33
- RAND – General health perceptions ([4]; 24 Weeks): 71+/-18
- RAND – Emotional well-being ([4]; 24 Weeks): 62+/-10
- RAND – Role limitations due to emotional health problems ([4]; 24 Weeks): 41.7+/-50
- Pinch Test ([4]; 24 Weeks, mean+/-SD): 7+/-1 kilograms
- 5x Sit to stand ([4]; 24 Weeks, mean+/-SD): 11 ± 1 s
- Grip Strength Evaluation ([4]; 24 Weeks, mean+/-SD): 16+/-1 kilograms
- DASH score (0 no disability, 100 severe disability) ([4]; 24 Weeks, mean+/-SD): 12+/-8
- Serious adverse events ([5]; 4 subjects): No subjects experienced serious adverse events
- Total Number of Adverse Events ([5]; 4 subjects): 111
- Grade 3 AEs (CTCAE) ([5]; both improved following drug interruption): increased alanine aminotransferase and decreased neutrophil count in subject 2
- Corneal keratitis with blurred vision ([5]; continuous daily dosing, drug interruptions required in two patients): all patients developed corneal keratitis with blurred vision
- Time to normalization of vision after infigratinib discontinuation ([5]; in vivo): ≤ 60 days
- Number of AEs considered possibly, probably, or definitely related to infigratinib ([5]; of 111 AEs): 87
- Corneal scarring, share of subjects ([5]; subjects who developed ocular keratitis on infigratinib): 50%
- TRP change ([6]; 75 mg daily, by week 8): increased in all patients
- cFGF23 decrease from baseline [6, 11]: 89%
- iFGF23 decrease from baseline [6, 11]: 95%
- Reduction in cFGF23 ([6]; Subject 2, first 24 hours after first 75 mg dose): 82%
- Biochemical response while on therapy ([6]; Subject 2, neither intact nor C-terminal FGF23 ever normalized): significant biochemical response
- iFGF23 nadir ([6]; Subject 2, normal <54 pg/mL): 171 pg/mL
- cFGF23 nadir ([6]; Subject 2, normal <180 RU/mL): 241 RU/mL
- Metabolic response while on therapy ([6]; Subjects 1, 3 and 4, reversed rapidly with drug cessation): complete metabolic response
- Biochemical response ([6]; all patients, 75 mg daily, week 8): partial biochemical response
- Phosphate levels change ([6]; first 24 hours after first 75 mg dose, p < 0.0001, none exceeded lower limit of normal at hour 24): increased
- iFGF23 change ([6]; first 24 hours after first 75 mg dose, p < 0.001): decreased significantly
- Enduring metabolic remission (persistently normal FGF23 and blood phosphate following drug discontinuation), primary objective ([6]; four TIO patients, up to 24 weeks daily oral): no subject achieved the primary objective
